Residue numbers refer to the chain shown, from its start. Values joined by “and” are separate entries in the source; they are usually repeats but may differ in a detail not shown here. Equal entries are not always repeated.
Experiments:
THIK-1 Y273A/I139A = molecular target: T1, THIK-1 Y273A/I139A (Homo sapiens, UniProt Q9HB14, I139A/Y273A); experiment: Inside-out excised patch recordings, oocytes, THIK-1 Y273A/I139A double mutant; format: cell-based; conditions: for τ of 1 mM TPenA block / τ of 1 mM TPenA release: I139A/Y273A; for Normalized currents: THIK-1 Y273A/I139A
T1 construct: expressed in transfected cells; host or cells: Xenopus oocytes (mRNA injection)
T1 sequence (Q9HB14 1-408 I139A/Y273A): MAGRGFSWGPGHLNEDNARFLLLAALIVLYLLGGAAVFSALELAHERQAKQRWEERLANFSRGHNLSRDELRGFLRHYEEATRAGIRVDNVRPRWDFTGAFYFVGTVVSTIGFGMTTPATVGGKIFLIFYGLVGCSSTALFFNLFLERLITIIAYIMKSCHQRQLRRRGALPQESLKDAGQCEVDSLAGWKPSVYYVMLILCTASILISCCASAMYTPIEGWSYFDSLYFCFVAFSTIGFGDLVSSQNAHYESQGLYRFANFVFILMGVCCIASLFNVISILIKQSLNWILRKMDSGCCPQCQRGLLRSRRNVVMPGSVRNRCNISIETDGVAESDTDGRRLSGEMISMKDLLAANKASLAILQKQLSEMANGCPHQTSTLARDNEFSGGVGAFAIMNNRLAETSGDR
Excerpt: (§1) Human K2P13.1 THIK-1 (GenBank accession number: NM_022054) and human K2P12.1 THIK-2 (NM_022055.1) were used in this study. For functional expression studies, the respective K^+ channel subtype coding sequences were subcloned into the oocyte expression vector pSGEM or the dual-purpose expression vector pFAW[41] and verified by sequencing. All mutant channels were obtained by site-directed mutagenesis and verified by sequencing. To increase surface expression and macroscopic currents, measurements of THIK-2 channels used a mutated ER retention motif, (R11A R12A R14A R15A R16A; THIK-2*)[20]. Vector DNA was linearized with NheI or MluI, and mRNA was synthesized in vitro using the SP6 or T7 AmpliCap Max High Yield Message Maker Kit (Cellscript, USA) or HiScribe T7 ARCA mRNA Kit (New England Biolabs).
(§2) Two-electrode voltage–clamp (TEVC) studies were performed in Xenopus oocytes. All animal use conformed to the Guide for the Care and Use of Laboratory Animals (NIH Publication 85–23), and all experiments using Xenopus toads were approved by the local ethics panels. Oocytes were stored at 17 °C in ND96 recording solution composed of (in mM): 96 NaCl, 2 KCl, 1.8 CaCl2, 1 MgCl2, 5 HEPES (pH 7.5 adjusted with NaOH and HCl), supplemented with Na-pyruvate (275 mg L^–1), theophylline (90 mg L^–1) and gentamicin (50 mg L^–1). Oocytes were injected with 1 ng mRNA for WT or mutant channels, and were incubated for 24–48 h at 17 °C. Two-electrode voltage clamp recordings were then performed as previously described[42],[43]. For macroscopic patch–clamp measurements, oocytes were obtained as described above incubated at 17 °C in a solution containing (mM): 54 NaCl, 30 KCl, 2.4 NaHCO3, 0.82 MgSO4 ×7 H2O, 0.41 CaCl2, 0.33 Ca(NO3)2 ×4 H2O and 7.5 TRIS (pH 7.4 adjusted with NaOH and HCl) for 1–4 days before use. Excised patch recordings in inside-out configuration conditions were performed at room temperature. Patch pipettes were made from thick-walled borosilicate glass GB 200TF-8P (Science Products), had resistances of 0.2–0.5 MΩ (tip diameter, 10–25 µm) and filled with a pipette solution (in mM): 120 KCl, 10 HEPES and 3.6 CaCl2 (pH 7.4 adjusted with KOH and HCl). Intracellular bath solutions and compounds were applied to the cytoplasmic side of excised patches for the various K^+ channels through a gravity flow multi-barrel pipette system. The intracellular solution had the following composition (in mM): 120 KCl, 10 HEPES, 2 EGTA and 1 pyrophosphate (pH adjusted with KOH and HCl). Currents were recorded with an EPC10 amplifier (HEKA Electronics) and sampled at 10 kHz or higher, with filtering set to 3 kHz (–3 dB) or higher, as appropriate for sampling rate. For measurements of GPCR activation, whole-cell currents were recorded for THIK-1 in transiently transfected HEK-293 cells. Cells were stimulated by a ramp protocol between −100 and +60 mV (holding potential, −80 mV). The pipette solution was composed of (in mM): 140 KCl, 2 MgCl2, 1 CaCl2, 2.5 EGTA and 10 HEPES (pH 7.3 adjusted with KOH and HCl). The extracellular bath solution had the following composition (in mM): 135 NaCl, 5 KCl, 2 MgCl2, 2 CaCl2, 10 glucose and 10 HEPES pH (pH 7.3 adjusted with NaOH and HCl). Oxotremorine M (Oxo-M) was added to extracellular bath solution to obtain the final concentration. Single-channel currents were recorded with an Axopatch 200B amplifier through a Digidata 1440A digitizer (Molecular Devices). Data were filtered at 2 kHz and recorded at a 200-kHz sampling rate with the program Clampex (Molecular Devices). Pipette solution and bath solution for cell-attached recordings contained (in mM): 140 KCl, 2 MgCl2, 1 CaCl2 and 10 HEPES (pH 7.4 adjusted with KOH and HCl). For inside-out recordings, the bath solution contained (in mM): 140 KCl, 2 MgCl2, 1 CaCl2 and 10 HEPES (pH 7.2 adjusted with KOH and HCl). All experiments were conducted at room temperature. […]

THIK-1 T110A = molecular target: T2, THIK-1 T110A (Homo sapiens, UniProt Q9HB14, T110A); experiment: Inside-out excised patch recordings, oocytes, THIK-1 T110A mutant; format: cell-based
T2 construct: expressed in transfected cells; host or cells: Xenopus oocytes (mRNA injection)
T2 sequence (Q9HB14 1-408 T110A): T1 sequence (Q9HB14 1-408 I139A/Y273A) with T110A, A139I, A273Y
Excerpt: as §1, §2

In the case of `CCCCC[N+](CCCCC)(CCCCC)CCCCC` [TPenA, tetrapentylammonium], the “τ of 1 mM TPenA block” value (THIK-1 Y273A/I139A; individual recordings) is reported as 0.121 s and 0.062 s and 0.131 s and 0.164 s and 0.120 s and 0.094 s and 0.191 s and 0.111 s and 0.116 s and 0.183 s and 0.093 s and 0.084 s and 0.142 s and 0.070 s and 0.095 s and 0.042 s, the “τ of 1 mM TPenA release” value (THIK-1 Y273A/I139A; individual recordings) is reported as 0.960 s and 0.559 s and 1.130 s and 0.565 s and 0.799 s and 0.283 s and 0.914 s and 0.634 s and 0.842 s and 0.928 s and 0.662 s and 0.571 s and 0.449 s and 0.371 s and 1.055 s and the “τ of 1 mM TPenA block” value (THIK-1 Y273A/I139A; mean) is reported as 0.11 s. The “τ of 1 mM TPenA release” value (THIK-1 Y273A/I139A; mean) was 0.71 s, the Normalized currents (THIK-1 Y273A/I139A; TPenA 0.1 µM) was 1.00 and the Normalized currents (THIK-1 Y273A/I139A; TPenA 1 µM) was 0.95. The Normalized currents (THIK-1 Y273A/I139A; TPenA 4 µM) was 0.90, the Normalized currents (THIK-1 Y273A/I139A; TPenA 15.6 µM) was 0.68 and the Normalized currents (THIK-1 Y273A/I139A; TPenA 62.5 µM) was 0.47. It also gave a Normalized currents (THIK-1 Y273A/I139A; TPenA 250 µM) of 0.22, a Normalized currents (THIK-1 Y273A/I139A; TPenA 1000 µM) of 0.08 and a Normalized currents (THIK-1 Y273A/I139A; TPenA 4000 µM) of 0.03. For the same compound, the Normalized currents (THIK-1 T110A; THIK-1 T110A, 15.6 µM TPenA) was 1.00, the Normalized currents (THIK-1 T110A; THIK-1 T110A, 62.5 µM TPenA) was 0.95 and the Normalized currents (THIK-1 T110A; THIK-1 T110A, 250 µM TPenA) was 0.81. The Normalized currents (THIK-1 T110A; THIK-1 T110A, 1000 µM TPenA) was 0.57, the Normalized currents (THIK-1 T110A; THIK-1 T110A, 4000 µM TPenA) was 0.28 and the IC50 (THIK-1 T110A; TPenA IC50, T110A mutant) was 1.28 mM. For the same compound, the IC50 (THIK-1 T110A; TPenA IC50, THIK-1 T110A, individual recordings) was 0.583 mM and 1.57 mM and 0.596 mM and 1.53 mM and 2.42 mM and 1.85 mM and 1.14 mM and 1.6 mM and 1.21 mM and 0.982 mM and 0.651 mM and the IC50 (THIK-1 T110A; TPenA IC50, THIK-1 T110A, mean) was 1.28 mM.
With `FC(F)(F)C(Cl)Br` (centres unmarked) [halothane] the “Inhibition (%)” value (THIK-1 T110A; 3.0 mM halothane, T110A, individual recordings) was 71.250% and 68.098% and 66.319% and 64.813% and 55.507% and 41.148% and 63.240% and 65.945% and 75.271%, the inhibition at 152 µM (THIK-1 T110A; halothane 0.152 mM, THIK-1 T110A) was 9.23% and the inhibition at 304 µM (THIK-1 T110A; halothane 0.304 mM, THIK-1 T110A) was 14.1%. The inhibition at 1520 µM (THIK-1 T110A; halothane 1.52 mM, THIK-1 T110A) was 45.3%, the inhibition at 3040 µM (THIK-1 T110A; halothane 3.04 mM, THIK-1 T110A) was 63.5% and the inhibition at 15200 µM (THIK-1 T110A; halothane 15.2 mM, THIK-1 T110A) was 89.5%.

Source: publication PMC12263422, “Cryo-EM structure of the human THIK-1 K2P K^+ channel reveals a lower Y gate regulated by lipids and anesthetics” (Nature Structural & Molecular Biology, 2025)
